{"source": "paper PMC2999880", "about": "(Neuropharmacology, 2009)", "key": {"[1]": {"biological_target": "recombinant α4β2 NNRs expressed in SH-EP1 cells (Homo sapiens, UniProt P17787+P43681)", "sequence (P43681 29-627 limits assumed)": "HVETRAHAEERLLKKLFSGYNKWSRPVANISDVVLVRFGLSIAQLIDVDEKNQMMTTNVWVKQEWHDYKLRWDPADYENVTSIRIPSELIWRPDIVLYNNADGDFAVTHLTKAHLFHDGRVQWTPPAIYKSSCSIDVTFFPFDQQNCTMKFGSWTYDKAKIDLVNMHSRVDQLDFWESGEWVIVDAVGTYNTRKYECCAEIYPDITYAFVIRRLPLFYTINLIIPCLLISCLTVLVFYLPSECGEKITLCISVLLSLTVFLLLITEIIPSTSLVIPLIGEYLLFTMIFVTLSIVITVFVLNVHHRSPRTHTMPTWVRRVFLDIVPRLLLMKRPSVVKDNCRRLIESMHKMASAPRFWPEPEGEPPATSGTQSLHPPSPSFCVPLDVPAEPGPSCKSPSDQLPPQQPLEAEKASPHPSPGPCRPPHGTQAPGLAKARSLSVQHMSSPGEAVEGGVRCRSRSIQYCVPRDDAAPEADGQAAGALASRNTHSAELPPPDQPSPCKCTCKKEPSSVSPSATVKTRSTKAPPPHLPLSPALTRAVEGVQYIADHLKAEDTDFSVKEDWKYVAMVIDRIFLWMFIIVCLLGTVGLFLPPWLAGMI", "sequence (P17787 26-502)": "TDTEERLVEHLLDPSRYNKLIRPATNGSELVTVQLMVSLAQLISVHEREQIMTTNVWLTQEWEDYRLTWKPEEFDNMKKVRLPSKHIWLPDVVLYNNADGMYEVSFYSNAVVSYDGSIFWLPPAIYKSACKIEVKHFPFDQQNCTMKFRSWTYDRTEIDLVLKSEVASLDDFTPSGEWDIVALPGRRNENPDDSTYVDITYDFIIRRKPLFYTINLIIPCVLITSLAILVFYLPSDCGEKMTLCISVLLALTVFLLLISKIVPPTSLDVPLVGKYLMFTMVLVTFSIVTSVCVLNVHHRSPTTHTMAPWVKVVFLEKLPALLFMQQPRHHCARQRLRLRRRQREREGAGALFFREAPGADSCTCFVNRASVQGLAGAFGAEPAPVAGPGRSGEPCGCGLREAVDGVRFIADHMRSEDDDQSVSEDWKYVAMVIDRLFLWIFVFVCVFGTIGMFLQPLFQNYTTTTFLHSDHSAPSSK", "assay": "[3H]-nicotine binding to recombinant α4β2 NNRs in SH-EP1 cell membranes", "conditions": "5 nM [3H]-nicotine, test compound up to 100 μM"}, "[2]": {"conditions": "clinical studies, human plasma, cited from earlier work"}, "[3]": {"biological_target": "α4β2 nicotinic receptors stably transfected in SH-EP1 cells (Homo sapiens, UniProt P17787+P43681)", "sequence (P43681 29-627 limits assumed)": "as the sequence (P43681 29-627 limits assumed) above", "sequence (P17787 26-502)": "as the sequence (P17787 26-502) above", "assay": "86Rb+ efflux in α4β2/SH-EP1 cells", "type": "cell-based", "conditions": "for extent of inhibition of nicotine-evoked 86Rb+ efflux: 10 μM nicotine; for effect on basal 86Rb+ efflux: compound alone, no agonist (data not shown); for extent of inhibition of TC-1827-evoked 86Rb+ efflux: 100 μM TC-1827"}, "[4]": {"assay": "Maximum plasma concentrations achieved in clinical studies", "type": "in vivo, human", "conditions": "calculated from reported ng/mL and molecular weight"}, "[5]": {"biological_target": "presynaptic naturally-expressed α4β2-containing nicotinic receptors (Rattus norvegicus, UniProt P09483+P12390)", "sequence (P09483 31-630)": "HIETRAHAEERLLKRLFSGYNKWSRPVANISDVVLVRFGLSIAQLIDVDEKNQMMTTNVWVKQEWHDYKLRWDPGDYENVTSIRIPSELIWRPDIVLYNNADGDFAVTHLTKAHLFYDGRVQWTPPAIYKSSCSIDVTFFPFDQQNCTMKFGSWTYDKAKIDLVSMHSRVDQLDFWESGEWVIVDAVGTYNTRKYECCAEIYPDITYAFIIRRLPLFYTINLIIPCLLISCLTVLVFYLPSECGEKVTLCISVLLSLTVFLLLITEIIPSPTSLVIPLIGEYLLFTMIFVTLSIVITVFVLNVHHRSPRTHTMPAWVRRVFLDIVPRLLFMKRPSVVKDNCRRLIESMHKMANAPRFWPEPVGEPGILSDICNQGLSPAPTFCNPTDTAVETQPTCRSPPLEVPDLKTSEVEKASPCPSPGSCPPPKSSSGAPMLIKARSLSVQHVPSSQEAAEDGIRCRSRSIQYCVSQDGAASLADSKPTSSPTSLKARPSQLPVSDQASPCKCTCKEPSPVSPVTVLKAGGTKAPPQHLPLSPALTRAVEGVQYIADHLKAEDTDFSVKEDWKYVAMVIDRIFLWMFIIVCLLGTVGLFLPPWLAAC", "sequence (P12390 25-500)": "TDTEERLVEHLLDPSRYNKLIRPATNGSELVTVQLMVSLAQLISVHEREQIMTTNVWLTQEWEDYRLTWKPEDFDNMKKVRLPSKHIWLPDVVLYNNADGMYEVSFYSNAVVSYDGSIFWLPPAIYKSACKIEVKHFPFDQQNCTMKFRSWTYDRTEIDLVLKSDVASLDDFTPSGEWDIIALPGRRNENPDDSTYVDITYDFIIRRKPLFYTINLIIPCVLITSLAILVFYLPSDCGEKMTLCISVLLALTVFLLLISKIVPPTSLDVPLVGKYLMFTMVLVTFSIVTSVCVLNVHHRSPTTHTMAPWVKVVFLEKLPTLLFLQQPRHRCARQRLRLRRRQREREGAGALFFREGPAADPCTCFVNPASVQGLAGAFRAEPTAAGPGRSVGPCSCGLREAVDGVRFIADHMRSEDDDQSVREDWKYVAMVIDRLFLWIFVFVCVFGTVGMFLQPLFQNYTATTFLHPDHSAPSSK", "assay": "Nicotine-evoked [3H]-dopamine release from rat striatal synaptosomes", "type": "biochemical", "conditions": "read-out: DA Release IC50, 10 μM nicotine-evoked [3H]-dopamine release, mean (95% CI)"}, "α7 NNRs": {"biological_target": "α7 NNRs (Rattus norvegicus, UniProt Q05941)", "sequence (Q05941 23-502)": "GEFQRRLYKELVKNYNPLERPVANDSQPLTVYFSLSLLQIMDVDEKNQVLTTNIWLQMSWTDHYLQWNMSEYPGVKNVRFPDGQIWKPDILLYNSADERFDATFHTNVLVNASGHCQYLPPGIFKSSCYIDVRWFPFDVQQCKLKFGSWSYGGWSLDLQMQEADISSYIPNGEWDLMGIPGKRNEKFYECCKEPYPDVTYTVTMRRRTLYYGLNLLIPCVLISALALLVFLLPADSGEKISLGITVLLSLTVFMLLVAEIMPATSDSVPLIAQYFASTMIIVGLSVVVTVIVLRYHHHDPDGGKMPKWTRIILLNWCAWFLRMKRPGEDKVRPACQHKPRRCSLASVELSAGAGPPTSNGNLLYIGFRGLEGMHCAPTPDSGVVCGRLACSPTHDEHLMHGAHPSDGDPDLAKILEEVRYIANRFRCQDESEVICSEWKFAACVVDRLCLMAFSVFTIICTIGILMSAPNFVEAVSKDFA", "assay": "Epibatidine-evoked [3H]-norepinephrine release from rat hippocampal slices", "type": "cell-based"}, "[6]": {"biological_target": "α7 NNR binding sites in rat hippocampal preparations (Rattus norvegicus, UniProt Q05941)", "sequence (Q05941 23-502)": "as above", "assay": "[3H]-methyllycaconitine competition binding to rat hippocampal membranes", "conditions": "5 nM [3H]-methyllycaconitine, test compound up to 100 μM"}, "rat α7 NNRs": {"biological_target": "rat α7 NNRs (Rattus norvegicus, UniProt Q05941)", "sequence (Q05941 23-502)": "as above", "assay": "ACh-evoked currents", "type": "cell-based", "conditions": "for pseudo-Hill slope (nH): variable slope sigmoid fit of inhibition of 60 μM ACh-evoked currents"}}, "note": "Like-named read-outs stand apart in the source and are kept apart here.", "data": [{"smiles": "O=C(CCCN1CCC(O)(c2ccc(Cl)cc2)CC1)c1ccc(F)cc1", "note": "[Haloperidol, haloperidol]", "values": [{"measurement": "inhibition of [3H]-nicotine binding", "setting": "[1]", "result": "None of the compounds tested inhibited binding"}, {"measurement": "Max. Plasma Levels", "setting": "[2]; ref Roh et al., 2001", "result": 86, "unit": "ng/mL"}, {"measurement": "extent of inhibition of nicotine-evoked 86Rb+ efflux", "setting": "[3]", "result": "completely inhibited"}, {"measurement": "effect on basal 86Rb+ efflux", "setting": "[3]", "result": "None of these compounds affected the basal"}, {"measurement": "Max. Plasma Levels", "setting": "[4]; ref Roh et al., 2001", "result": 0.23, "unit": "µM"}]}, {"smiles": "CN1CCN(C2=Nc3cc(Cl)ccc3Nc3ccccc32)CC1", "note": "[Clozapine, clozapine]", "values": [{"measurement": "inhibition of [3H]-nicotine binding", "setting": "[1]", "result": "None of the compounds tested inhibited binding"}, {"measurement": "Max. Plasma Levels", "setting": "[2]; ref Diaz et al., 2005", "result": 574, "unit": "ng/mL"}, {"measurement": "Max. Plasma Levels", "setting": "[2]; ref Dumortier et al., 1998", "result": 1310, "unit": "ng/mL"}, {"measurement": "Max. Plasma Levels", "setting": "[2]; ref Freudenreich et al., 1996", "result": 880, "unit": "ng/mL"}, {"measurement": "Max. Plasma Levels", "setting": "[2]; ref Perry et al., 1991", "result": 1088, "unit": "ng/mL"}, {"measurement": "Max. Plasma Levels", "setting": "[2]; ref Wong et al., 2006", "result": 1920, "unit": "ng/mL"}, {"measurement": "extent of inhibition of nicotine-evoked 86Rb+ efflux", "setting": "[3]", "result": "completely inhibited"}, {"measurement": "extent of inhibition of TC-1827-evoked 86Rb+ efflux", "setting": "[3]", "result": "fully inhibited"}, {"measurement": "effect on basal 86Rb+ efflux", "setting": "[3]", "result": "None of these compounds affected the basal"}, {"measurement": "Max. Plasma Levels", "setting": "[4]; ref Diaz et al., 2005", "result": 1.8, "unit": "µM"}, {"measurement": "Max. Plasma Levels", "setting": "[4]; ref Dumortier et al., 1998", "result": 4.0, "unit": "µM"}, {"measurement": "Max. Plasma Levels", "setting": "[4]; ref Perry et al., 1991", "result": 3.3, "unit": "µM"}, {"measurement": "Max. Plasma Levels", "setting": "[4]; ref Wong et al., 2006", "result": 5.9, "unit": "µM"}]}, {"smiles": "Clc1ccc2c(c1)N=C(N1CCNCC1)c1ccccc1N2", "note": "[N-desmethylclozapine]", "values": [{"measurement": "IC50", "setting": "[5]", "result": 2100, "unit": "nM"}, {"measurement": "inhibition of [3H]-nicotine binding", "setting": "[1]", "result": "None of the compounds tested inhibited binding"}, {"measurement": "Max. Plasma Levels", "setting": "[2]; ref Dumortier et al., 1998", "result": 580, "unit": "ng/mL"}, {"measurement": "Max. Plasma Levels", "setting": "[2]; ref Flanagan et al., 2003", "result": 420, "unit": "ng/mL"}, {"measurement": "Max. Plasma Levels", "setting": "[2]; ref Wong et al., 2006", "result": 720, "unit": "ng/mL"}, {"measurement": "IC50", "setting": "α7 NNRs", "result": 2200, "unit": "nM"}, {"measurement": "inhibition of [3H]-methyllycaconitine binding", "setting": "[6]", "result": "None of the compounds tested inhibited binding"}, {"measurement": "IC50", "setting": "[3]", "result": 2100, "unit": "nM"}, {"measurement": "extent of inhibition of nicotine-evoked 86Rb+ efflux", "setting": "[3]", "result": "completely inhibited"}, {"measurement": "extent of inhibition of TC-1827-evoked 86Rb+ efflux", "setting": "[3]", "result": "fully inhibited"}, {"measurement": "effect on basal 86Rb+ efflux", "setting": "[3]", "result": "None of these compounds affected the basal"}, {"measurement": "IC50", "setting": "rat α7 NNRs", "result": 3200, "unit": "nM"}, {"measurement": "activity at 6 µM", "setting": "rat α7 NNRs; read-out: maximal ACh net charge response in the presence of inhibitor", "result": "37.5 ± 5", "unit": "%"}, {"measurement": "pseudo-Hill slope (nH)", "setting": "rat α7 NNRs", "result": "−1.3"}, {"measurement": "Max. Plasma Levels", "setting": "[4]; ref Dumortier et al., 1998", "result": 1.9, "unit": "µM"}, {"measurement": "Max. Plasma Levels", "setting": "[4]; ref Flanagan et al., 2003", "result": 1.3, "unit": "µM"}, {"measurement": "Max. Plasma Levels", "setting": "[4]; ref Wong et al., 2006", "result": 2.3, "unit": "µM"}]}, {"smiles": "OCCOCCN1CCN(C2=Nc3ccccc3Sc3ccccc32)CC1", "note": "[Quetiapine, quetiapine]", "values": [{"measurement": "Max. Plasma Levels", "setting": "[2]; ref Aichhorn et al., 2006", "result": 491, "unit": "ng/mL"}, {"measurement": "Max. Plasma Levels", "setting": "[2]; ref Grimm et al., 2006", "result": 1042, "unit": "ng/mL"}, {"measurement": "Max. Plasma Levels", "setting": "[2]; ref Lin et al., 2004", "result": 91, "unit": "ng/mL"}, {"measurement": "Max. Plasma Levels", "setting": "[2]; ref Tauscher-Wisniewski et al., 2002", "result": 1454, "unit": "ng/mL"}, {"measurement": "Max. Plasma Levels", "setting": "[4]; ref Aichhorn et al., 2006", "result": 1.3, "unit": "µM"}, {"measurement": "Max. Plasma Levels", "setting": "[4]; ref Grimm et al., 2006", "result": 2.7, "unit": "µM"}, {"measurement": "Max. Plasma Levels", "setting": "[4]; ref Lin et al., 2004", "result": 0.24, "unit": "µM"}]}, {"smiles": "CN(C)CCCN1c2ccccc2Sc2ccc(Cl)cc21", "note": "[Chlorpromazine, chlorpromazine]", "values": [{"measurement": "IC50", "setting": "[5]", "result": 2800, "unit": "nM"}, {"measurement": "inhibition of [3H]-nicotine binding", "setting": "[1]", "result": "None of the compounds tested inhibited binding"}, {"measurement": "Max. Plasma Levels", "setting": "[2]; ref Chetty and Miller, 2001", "result": 839, "unit": "ng/mL"}, {"measurement": "Max. Plasma Levels", "setting": "[2]; ref Chetty et al., 1996", "result": 422, "unit": "ng/mL"}, {"measurement": "Max. Plasma Levels", "setting": "[2]; ref Della Corte et al., 1993", "result": 124, "unit": "ng/mL"}, {"measurement": "IC50", "setting": "α7 NNRs", "result": 1700, "unit": "nM"}, {"measurement": "inhibition of [3H]-methyllycaconitine binding", "setting": "[6]", "result": "None of the compounds tested inhibited binding"}, {"measurement": "IC50", "setting": "rat α7 NNRs", "result": 9100, "unit": "nM"}, {"measurement": "pseudo-Hill slope (nH)", "setting": "rat α7 NNRs", "result": "−0.84"}, {"measurement": "Max. Plasma Levels", "setting": "[4]; ref Chetty and Miller, 2001", "result": 2.4, "unit": "µM"}, {"measurement": "Max. Plasma Levels", "setting": "[4]; ref Chetty et al., 1996", "result": 1.2, "unit": "µM"}]}]}
